Experimental data as given in BindingDB's records for doi:10.1074/jbc.274.19.13370 (SynthÉLabo, 1999).
Where “and” joins values, the source holds several entries; their conditions need not be identical. Equal values may be shown once.

Target: Gamma-aminobutyric acid receptor subunit alpha-5 (Rattus norvegicus, UniProt P19969)
Sequence (P19969 whole entry): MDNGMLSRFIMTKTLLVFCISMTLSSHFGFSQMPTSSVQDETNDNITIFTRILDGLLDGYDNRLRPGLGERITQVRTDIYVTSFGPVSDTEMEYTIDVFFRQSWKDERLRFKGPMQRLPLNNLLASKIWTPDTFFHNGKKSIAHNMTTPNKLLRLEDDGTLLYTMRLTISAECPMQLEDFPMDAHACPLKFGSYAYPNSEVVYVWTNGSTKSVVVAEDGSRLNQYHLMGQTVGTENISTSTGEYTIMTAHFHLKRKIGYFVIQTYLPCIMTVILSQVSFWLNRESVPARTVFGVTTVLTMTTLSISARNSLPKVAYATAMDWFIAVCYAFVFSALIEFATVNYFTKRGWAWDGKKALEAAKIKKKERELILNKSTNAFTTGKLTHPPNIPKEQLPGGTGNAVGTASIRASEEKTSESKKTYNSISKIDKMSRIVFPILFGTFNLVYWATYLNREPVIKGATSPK

Cc1nnc2ccc(-c3cccc(C(F)(F)F)c3)nn12
Ki: 333 nM and 127 nM and 157 nM and 447 nM
